Results reported in article PMC12024474 (RSC Medicinal Chemistry, 2025).
Like-named read-outs stand apart in the source and are kept apart here. Where a SMILES comes first, the peptide text is derived from it. [ ]: non-standard residue; d: D form. Hmp(2R,3S) = CC[C@H](C)[C@@H](O)C(=O)O; Sta = CC(C)C[C@H](N)[C@@H](O)CC(=O)O; dNMeF = CN[C@H](Cc1ccccc1)C(=O)O; NMeQ = CN[C@@H](CCC(N)=O)C(=O)O

Columns and labels:
MDA-MB-231 cells = assay: MTT cell viability assay; type: cell-based, human; conditions: MDA-MB-231, 48 h treatment
CatE = conditions: cited from earlier work

IC50 (cell viability) (MDA-MB-231 cells) [µg/mL] | Compound | preference for CatE compared to CatD (CatE) | preference for CatE compared to CatD (CatE; listed as grassystatin C) [fold]
0.025 | TRAIL: tumor necrosis factor-related apoptosis-inducing ligand |  | 
 | CC[C@H](C)[C@H](NC(=O)C[C@H](O)[C@H](CC(C)C)NC(=O)[C@H](CCC(N)=O)N(C)C(=O)[C@H](CC(C)C)NC(=O)[C@H](O)[C@@H](C)CC)C(=O)NCC(=O)N(C)[C@H](Cc1ccccc1)C(=O)N1CCC[C@H]1C(=O)OC [Grassystatin C, grassystatin C] ({Hmp(2R,3S)}-L[NMeQ][Sta]IG[dNMeF]P-OMe) | about 30 fold | > 30
